{
  "source": "patent US7629317B2",
  "about": "“Control of growth and repair of gastro-intestinal tissues by gastrokines and inhibitors” (The University of Chicago, priority 2001, dated 2009)",
  "key": {"IEC-6 cells [1]": {"tested_on": "IEC-6 cells", "assay": "Growth of intestinal epithelial IEC-6 cells (cell count)", "format": "cell-based, rat", "method": "IEC-6 cells were grown in 60-mm dishes. […] Values are means±SE for 3 cultures.\nTo characterize the capacity of gastric and intestinal cells to respond to AMP-18, AGS gastric adenocarcinoma cells, HAE human gastric antrum mucosa primary cultures transformed with SV40 large T antigen, rat diploid small intestinal epithelial cells of the IEC-6 (FIG. 15) and IEC-18 lines, NCI N-87 gastric carcinoma cells, and SK-GT5 gastroesophageal adenocarcinoma cells were studied; human WI-38 fibroblasts and HeLa cells served as non-GI control cell lines. Mitogenesis was assayed by performing cell counts 3 to 4 days after exposing cells to the agent of interest, trypsinizing the culture to prepare single cells, and confirming this while counting them in a hemocytometer."}, "IEC-6 cells [2]": {"tested_on": "IEC-6 cells", "assay": "[3H]thymidine incorporation into DNA in IEC-6 cells", "format": "cell-based, rat", "text": "Growth stimulation by peptide 77-97 was additive with that of EGF. […] HAE cells were used to test whether AMP-18 can exert an effect on epithelial cells that exist in the local environment of its synthesis. These cells, provided by Dr. Duane Smoot, Howard University College of Medicine, are not completely immortalized and therefore have limited passage number. Growth stimulation of HAE cells by peptide 77-97 was apparently additive with that of EGF (FIG. 16, left panel). Not only does the AMP peptide stimulate growth but it also acted as a motogen, resulting in more rapid migration (restitution) of cells into scrape wounds made in confluent cultures. […] Near-maximal growth stimulation was detected at an AMP peptide concentration of 0.5 μg/ml (0.23 μM) (FIG. 15, center panel), a much lower value than the concentration needed for trefoil peptides (1 μg/μl) (˜150 μM) or the α-defensin, cryptdin 3 ([…]) (˜140 μM) to exert their effects in culture. […]\nNon-transformed monkey kidney epithelial cell line BSC-1 and other epithelial cell lines were used to assess effects on growth. […] AMP-18 preparations were added to the culture medium and 4 days later the cell monolayer was rinsed, detached with trypsin, and the cells were counted using a hemocytometer. […]"}, "hsp25, hsp72": {"tested_on": "hsp25, hsp72", "assay": "Expression of heat shock proteins by IEC-18 cells after thermal injury (immunoblot)", "format": "cell-based, rat", "settings": "42° C. 23 min, peptide 8 μg/ml; 12 and 24 hr; listed as AMP peptide", "method": "FIG. 42. Effect of AMP peptide on expression of heat shock proteins by intestinal epithelial cells after thermal injury. IEC-18 cell monolayers were subjected to non-lethal heat shock injury by exposure to 42° C. for 23 min. Immediately thereafter some cultures received AMP peptide (8 μg/ml) (P on figure); control cultures (C) received vehicle. Whole cell protein was analyzed by immunoblotting. Increased expression of hsp25 and induced hsp72 is seen 12 hr after heat shock in control cultures, but constitutive expression of hsc73 is not altered. Expression of hsp25 and 72 was increased after treatment with AMP peptide compared to vehicle at 12 and 24 hr.\nIn an effort to identify molecules that could mediate the cytoprotective effect of AMP peptide, it was asked if exposing intestinal epithelial cells to the peptide could modify induction of heat shock proteins (hsps) (Musch et al., 1996). Diploid non-transformed rat intestinal epithelial IEC-18 cells were used to study induction of hsps in response to thermal injury rather than C2 cells—which constitutively express hsp27 and hsp72 at high levels, possibly because they are transformed. (Hsp27 is found in human C2 cells, and hsp25 in rat IEC-18 cells. Hsp72 is often referred to as hsp70). The results depicted in FIG. 42 indicate that, as expected, hsc73 and hsp25 are constitutively expressed (0 hr), but hsp72 is not. […]"}, "Streptococcus agalactiae": {"tested_on": "Streptococcus agalactiae", "assay": "Growth of other bacteria and fungi", "format": "cell-based"}, "Escherichia coli": {"tested_on": "Escherichia coli", "assay": "Growth of other bacteria and fungi", "format": "cell-based"}, "Candida albicans": {"tested_on": "Candida albicans", "assay": "Growth of other bacteria and fungi", "format": "cell-based"}},
  "note": "Where “and” joins values, the source holds several entries; their conditions need not be identical. Equal values may be shown once. Entries after “also recorded” stand apart in the source; their conditions may differ.",
  "data": [
    {"sequence": "LDALVKEKKLQGKGPGGPPPK [97–117, peptide 77-97 of the mature protein, same as 97-117 of the human precursor]", "values": [
      {"measurement": "growth stimulation of IEC-6 cells (in words)", "setting": "IEC-6 cells [1]", "result": "stimulated growth in a concentration-dependent manner"},
      {"measurement": "concentration at near-maximal growth stimulation", "setting": "IEC-6 cells [1]; FIG. 15, center panel, listed as AMP peptide", "result": "0.5 μg/ml and 0.23 μM"},
      {"measurement": "potency compared with EGF", "setting": "IEC-6 cells [1]; peptide 1 μg/ml vs EGF 50 ng/ml", "result": "more potent than EGF"},
      {"measurement": "stimulation of [3H]thymidine incorporation into DNA", "setting": "IEC-6 cells [2]; P<0.001", "result": 68, "unit": "%"},
      {"measurement": "[3H]thymidine incorporation into DNA", "setting": "IEC-6 cells [2]; with peptide, without 16,668±616", "result": "28,036±882"},
      {"measurement": "expression of hsp25 and hsp72 compared to vehicle", "setting": "hsp25, hsp72", "result": "greater; also recorded: increased"},
      {"measurement": "growth of Streptococcus agalactiae", "setting": "Streptococcus agalactiae", "result": "did not alter the growth"},
      {"measurement": "growth of Escherichia coli", "setting": "Escherichia coli", "result": "did not alter the growth"},
      {"measurement": "growth of Candida albicans", "setting": "Candida albicans", "result": "did not alter the growth"}
    ]}
  ]
}
